Measured values from patent US20170121315A1, “HETEROBICYCLICALLY SUBSTITUTED 4-OXOBUTANE ACID DERIVATIVES AND USE THEREOF” (priority 2014, published 2017).

Experiments:
Assay type in all cases: biochemical
MMP-14 = molecular target: T1, MMP-14 (Homo sapiens, UniProt P50281); experiment: In vitro MMP-14 inhibition test; conditions: human MMP-14
T1 construct: purchased R&D Systems 918-MP
Source text: (§1) The MMP-mediated amidolytic cleavage of a suitable peptide substrate leads to an increase in fluorescent light here too. The signal intensity of the fluorescent light is directly proportional to the enzyme activity. The active concentration of a test compound at which half the enzyme is inhibited (50% signal intensity of the fluorescent light) is reported as the IC50 value.
Recombinant MMP-14 (R&D Systems, 918-MP) is enzymatically activated in accordance with the manufacturer's instructions using recombinant furin (R&D Systems, 1503-SE). 1 μl of the test compound to be analysed (as a solution in DMSO, suitable concentrations e.g. 1 nM to 30 μM) is pipetted into 24 μl of activated enzyme (final concentration e.g. 0.5 nM) in reaction buffer (50 mM Tris/HCl pH 7.5, 10 mM CaCl2, 150 mM NaCl, 0.05% Brij®-35) in a white 384-hole microtiter plate (MTP). The enzymatic reaction is started by adding the intramolecularly quenched Mca-Lys-Pro-Leu-Gly-Leu-Dpa(Dnp)-Ala-Arg-NH2 substrate (final concentration e.g. 5 μM; R&D Systems, ES-010), so as to result in a total test volume of 50 μl. The course of the MMP-14 reaction is measured by measuring the fluorescence intensity (excitation 320 nm, emission 410 nm) over a suitable period of time (e.g. over 120 min at a temperature of 32° C.).

MMP-1 = molecular target: T2, MMP-1 (Homo sapiens, UniProt P03956); experiment: In vitro MMP-1 inhibition test; conditions: human MMP-1
T2 construct: purchased R&D Systems 901-MP
T2 sequence (P03956 100-469): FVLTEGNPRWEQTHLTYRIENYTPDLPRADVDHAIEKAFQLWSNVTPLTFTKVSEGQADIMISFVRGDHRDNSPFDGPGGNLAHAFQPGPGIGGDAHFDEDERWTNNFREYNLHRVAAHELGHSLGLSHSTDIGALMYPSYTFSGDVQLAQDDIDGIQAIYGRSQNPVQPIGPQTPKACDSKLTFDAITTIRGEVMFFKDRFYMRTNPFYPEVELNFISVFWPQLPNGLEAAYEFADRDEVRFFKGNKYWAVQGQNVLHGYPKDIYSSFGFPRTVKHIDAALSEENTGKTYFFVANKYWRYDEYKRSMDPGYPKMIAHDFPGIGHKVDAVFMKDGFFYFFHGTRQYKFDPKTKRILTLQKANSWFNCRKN
Source text: as §1
(§2) Recombinant MMP-1 (R&D Systems, 901-MP) is chemically activated in accordance with the manufacturer's instructions using APMA. 1 μl of the test compound to be analysed (as a solution in DMSO, suitable concentrations e.g. 1 nM to 30 μM) is pipetted into 24 μl of activated enzyme (final concentration e.g. 2 nM) in reaction buffer (50 mM Tris/HCl pH 7.5, 10 mM CaCl2, 150 mM NaCl, 0.05% Brij®-35) in a white 384-hole microtiter plate (MTP). The enzymatic reaction is started by adding the intramolecularly quenched Mca-Pro-Leu-Gly-Leu-Dpa(Dnp)-Ala-Arg-NH2 substrate (final concentration e.g. 10 μM; R&D Systems, ES-001), so as to result in a total test volume of 50 μl. The course of the MMP-1 reaction is measured by measuring the fluorescence intensity (excitation 320 nm, emission 410 nm) over a suitable period of time (e.g. over 120 min at a temperature of 32° C.).

MMP-9 = molecular target: T3, MMP-9 (Homo sapiens, UniProt P14780); experiment: In vitro MMP-9 inhibition test; conditions: human MMP-9
T3 construct: purchased R&D Systems 911-MP
T3 sequence (P14780 107-707 limits assumed): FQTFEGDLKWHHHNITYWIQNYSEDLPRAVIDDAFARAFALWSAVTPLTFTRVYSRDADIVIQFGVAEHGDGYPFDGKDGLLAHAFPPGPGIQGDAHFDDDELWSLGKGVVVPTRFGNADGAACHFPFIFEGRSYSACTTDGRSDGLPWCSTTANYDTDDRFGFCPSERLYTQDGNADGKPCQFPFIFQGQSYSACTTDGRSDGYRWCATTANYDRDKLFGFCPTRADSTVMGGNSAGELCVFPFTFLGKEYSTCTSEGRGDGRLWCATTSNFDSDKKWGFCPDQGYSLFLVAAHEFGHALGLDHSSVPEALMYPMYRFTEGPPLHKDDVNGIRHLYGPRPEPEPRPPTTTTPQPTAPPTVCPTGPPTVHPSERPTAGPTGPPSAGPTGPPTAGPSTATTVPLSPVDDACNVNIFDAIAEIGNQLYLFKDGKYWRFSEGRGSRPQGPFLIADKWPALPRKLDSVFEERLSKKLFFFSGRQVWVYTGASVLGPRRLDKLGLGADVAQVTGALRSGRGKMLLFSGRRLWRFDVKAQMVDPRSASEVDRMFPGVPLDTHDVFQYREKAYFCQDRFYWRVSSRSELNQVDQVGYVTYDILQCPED
Source text: as §1
as §2, with “Recombinant MMP-9” for “Recombinant MMP-1”, “Systems, 911-MP)” for “Systems, 901-MP)”, “e.g. 0.1” for “e.g. 2”, “the MMP-9” for “the MMP-1”

MMP-3 = molecular target: T4, MMP-3 (Homo sapiens, UniProt P08254); experiment: In vitro MMP-3 inhibition test; conditions: human MMP-3
T4 construct: purchased R&D Systems 513-MP
T4 sequence (P08254 100-477): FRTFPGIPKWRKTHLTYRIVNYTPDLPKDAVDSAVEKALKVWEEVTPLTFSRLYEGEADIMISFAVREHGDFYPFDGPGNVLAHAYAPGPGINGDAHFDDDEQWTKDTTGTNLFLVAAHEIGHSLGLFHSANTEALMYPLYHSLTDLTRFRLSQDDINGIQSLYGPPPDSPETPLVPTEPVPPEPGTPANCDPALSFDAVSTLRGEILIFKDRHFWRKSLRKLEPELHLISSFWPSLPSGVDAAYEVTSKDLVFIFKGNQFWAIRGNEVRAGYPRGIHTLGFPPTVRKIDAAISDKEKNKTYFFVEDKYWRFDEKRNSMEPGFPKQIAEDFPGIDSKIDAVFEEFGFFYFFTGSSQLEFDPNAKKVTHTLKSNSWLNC
Source text: as §1
as §2, with “MMP-3” for “MMP-1”, “513-MP)” for “901-MP)”, “Mca-Arg-Pro-Lys-Pro-Val-Glu-Nval-Trp-Arg-Lys(Dnp)-NH2” for “Mca-Pro-Leu-Gly-Leu-Dpa(Dnp)-Ala-Arg-NH2”, “ES-002),” for “ES-001),”

| Compound | IC50 (MMP-14) [µM] | IC50 (MMP-1) [µM] | IC50 (MMP-9) [µM] | IC50 (MMP-3) [µM] |
| --- | --- | --- | --- | --- |
| O=C(CC(CCn1nnc2ccccc2c1=O)C(=O)O)c1onc2cc(OCc3ccccc3)ccc12 (racemic) [Example 156, (+/−)-4-[6-(Benzyloxy)-2,1-benzoxazol-3-yl]-4-oxo-2-[2-(4-oxo-1,2,3-benzotriazin-3(4H)-yl)ethyl]butanoic acid] | 9.3 | > 40 | 0.17 | 13 |
| CCCCCOc1ccc2c(C(=O)CC(CCn3nnc4ccccc4c3=O)C(=O)O)coc2c1 (single isomer, unassigned) [Example 91, 4-Oxo-2-[2-(4-oxo-1,2,3-benzotriazin-3(4H)-yl)ethyl]-4-[6-(pentyloxy)-1-benzofur-3-yl]butanoic acid] | 4 | > 40 | 0.041 | 17 |
| O=C(CC(CCn1nnc2ccccc2c1=O)C(=O)O)c1cc2cc(OCCc3ccccc3)ccc2o1 (single isomer, unassigned; (+)) [Example 21, (+)-4-Oxo-2-[2-(4-oxo-1,2,3-benzotriazin-3(4H)-yl)ethyl]-4-[5-(2-phenylethoxy)-1-benzofur-2-yl]butanoic acid] | 30 | > 40 | 5.6 | 22 |
| O=C(CC(CCn1nnc2ccccc2c1=O)C(=O)O)c1cc2cc(OCc3ccc(F)cc3)ccc2o1 (single isomer, unassigned; (+)) [Example 23, (+)-4-{5-[(4-Fluorobenzyl)oxy]-1-benzofur-2-yl}-4-oxo-2-[2-(4-oxo-1,2,3-benzotriazin-3(4H)-yl)ethyl]butanoic acid] | 15 | > 40 | 13 | > 40 |
| O=C(CC(CCn1nnc2ccccc2c1=O)C(=O)O)c1cc2cc(OCc3ccccc3)ccc2o1 (single isomer, unassigned; (+)) [Example 30, (+)-4-[5-(Benzyloxy)-1-benzofur-2-yl]-4-oxo-2-[2-(4-oxo-1,2,3-benzotriazin-3(4H)-yl)ethyl]butanoic acid] | 31 | > 40 | 27 | > 40 |
| NC(=O)c1cccc(COc2ccc3oc(C(=O)CC(CCn4nnc5ccccc5c4=O)C(=O)O)cc3c2)c1 (single isomer, unassigned; (+)) [Example 34, (+)-4-{5-[(3-Carbamoylbenzyl)oxy]-1-benzofur-2-yl}-4-oxo-2-[2-(4-oxo-1,2,3-benzotriazin-3(4H)-yl)ethyl]butanoic acid] | 7.9 | > 40 | 38 | 34 |
| CCCCCCCOc1ccc2cc(C(=O)CC(CCn3nnc4ccccc4c3=O)C(=O)O)oc2c1 (single isomer, unassigned; (+)) [Example 69, (+)-4-[6-(Heptyloxy)-1-benzofur-2-yl]-4-oxo-2-[2-(4-oxo-1,2,3-benzotriazin-3(4H)-yl)ethyl]butanoic acid acid] | > 40 | > 40 | 13 | 36 |
| CCCCCCOc1ccc2c(C(=O)CC(CCn3nnc4ccccc4c3=O)C(=O)O)coc2c1 (single isomer, unassigned; (+)) [Example 100, (+)-4-[6-(Hexyloxy)-1-benzofur-3-yl]-4-oxo-2-[2-(4-oxo-1,2,3-benzotriazin-3(4H)-yl)ethyl]butanoic acid] | 4 | > 40 | 0.074 | > 40 |
| O=C(CC(CCn1nnc2ccccc2c1=O)C(=O)O)c1cc2cc(OCCCC(F)(F)F)ccc2o1 (single isomer, unassigned; enantiomer 2) [Example 13, (+)-4-Oxo-2-[2-(4-oxo-1,2,3-benzotriazin-3(4H)-yl)ethyl]-4-[5-(4,4,4-trifluorobutoxy)-1-benzofur-2-yl]butanoic acid (enantiomer 2)] | 17 | > 40 | 3.8 | > 40 |
| O=C(C[C@H](CCn1nnc2ccccc2c1=O)C(=O)O)c1noc2cc(OCC3CCOCC3)ccc12 (single isomer, unassigned; enantiomer 2) [Example 135] | 3.5 | > 40 | 1.7 | 12 |

Now those with a lower IC50 (MMP-14), led by results:

| IC50 (MMP-14) [µM] | IC50 (MMP-1) [µM] | IC50 (MMP-9) [µM] | IC50 (MMP-3) [µM] | Compound |
| --- | --- | --- | --- | --- |
| 0.7 | > 40 | 0.19 | 1.1 | O=C(O)[C@H]1[C@H](Cn2nnc3ccc(C(F)(F)F)cc3c2=O)CC[C@@H]1C(=O)c1cc2cc(OCCc3ccccc3)ccc2o1 (racemic) [Example 157, (+/−)-(1RS,2SR,5RS)-2-{[4-Oxo-6-(trifluoromethyl)-1,2,3-benzotriazin-3(4H)-yl]methyl}-5-{[5-(2-phenylethoxy)-1-benzofur-2-yl]carbonyl}cyclopentanecarboxylic acid (racemate)] |
| 1.9 | > 40 | 0.28 | 5.7 | O=C(CC(CCn1nnc2ccccc2c1=O)C(=O)O)c1coc2cc(OCC3CCCC3)ccc12 (single isomer, unassigned; (+)) [Example 80, (+)-4-[6-(Cyclopentylmethoxy)-1-benzofur-3-yl]-4-oxo-2-[2-(4-oxo-1,2,3-benzotriazin-3(4H)-yl)ethyl]butanoic acid] |
| 2.5 | > 40 | 0.094 | 16 | O=C(CC(CCn1nnc2ccccc2c1=O)C(=O)O)c1coc2cc(OCC3CCCCC3)ccc12 (single isomer, unassigned; (+)) [Example 82, (+)-4-[6-(Cyclohexylmethoxy)-1-benzofur-3-yl]-4-oxo-2-[2-(4-oxo-1,2,3-benzotriazin-3(4H)-yl)ethyl]butanoic acid] |
| 2.8 | > 40 | 0.59 | 6.4 | O=C(CC(CCn1nnc2ccccc2c1=O)C(=O)O)c1cc2ccc(OCC3CC3)cc2s1 (single isomer, unassigned; (+)) [Example 112, (+)-4-[6-(Cyclopropylmethoxy)-1-benzothiophen-2-yl]-4-oxo-2-[2-(4-oxo-1,2,3-benzotriazin-3(4H)-yl)ethyl]butanoic acid] |
